Tests used:
[1] = tested on: inflammatory sensitization induced by carrageenan; experiment: Sensitivity to thermal stimulation (avoidance time) in carrageenan-injected mice; assay type: in vivo; details: 10 μl of 0.1% carrageenan 3 h before, 10 μl of 1 mM substance into hind paw, FIG. 4
Procedure: Equal amount of AP18 (Biomol, USA), the TRPA1 specific inhibitor, was injected into the positive control. Avoidance time was measured by using thermal stimulator (Ugo basile plant test, Italy). Each group was composed of 5 mice and beam injection was performed four times, which were averaged.

[2] = tested on: pain induced by cinnamaldehyde; experiment: Acute hind paw licking/flicking behaviors in mice (cinnamaldehyde-induced pain, normal or inflammatory condition); assay type: in vivo; details: hind paw injection, 10 minutes, substance injected alone, FIG. 3a
Procedure: The time spent for the hind paw licking/flicking behaviors in mice were measured according to the method of Bandell M, et al. (Neuron 41:849-857, 2004) and Moqrich A, et al. (Science 307:1468-1472, 2005), for 10 minutes. • Control: non-treatment; • Experimental group 1. […] 300 μM of CA; • Experimental group 3.

Row | SMILES | Sensitivity against thermal stimulation (avoidance time) [1] | Time spent for hind paw licking/flicking behaviors, substance alone [2]
1 | CC(=C\c1ccc(Cl)cc1)/C(C)=N/O [AP18] | almost no effects | –
2 | O=CC=Cc1ccccc1 [cinnamaldehyde] | – | increased the time spent for the behaviors
